# Data as given in patent US20240374605A1, “METHODS OF TREATING CANCER” (Foghorn Therapeutics Inc., priority 2021, published 2024).
# Key:
# parental MP41 cells = assay: 7-day growth inhibition assay, parental cells; settings: parental MP41, 7-day; FIG. 10
# [1] = tested on: PKC inhibitor (PKCi)-resistant MP41 uveal melanoma cells; assay: 7-day growth inhibition assay, PKC inhibitor-resistant cells; assay type: cell-based
# [2] = tested on: Uveal melanoma cell lines (92-1, MP41, MP38, MP46) and non-small cell lung cancer cells (NCIH1299); assay: 3-day growth inhibition (Cell-titer glow), Example 12; assay type: cell-based; settings: 0 to 10 μM, 3 days; FIG. 6
# [3] = tested on: Uveal melanoma cell lines, 92-1 or MP41; assay: 3-day growth inhibition compared with clinical PKC and MEK inhibitors (Cell-titer glow); assay type: cell-based; settings: 0 to 10 μM, 3 days
# [4] = tested on: uveal melanoma, hematologic cancer, prostate cancer, breast cancer, and Ewing's sarcoma cell lines; settings: breast cancer and Ewing's sarcoma lines vs the other tested cell lines, 0 to 10 μM, FIG. 4
# BRG1 = target: T1, BRG1 (Homo sapiens, UniProt P51532); assay: ATPase catalytic activity of BRG-1, in vitro biochemical assay using ADP-Glo; settings: 30 nM BRG-1, 400 μM ATP, 1 hour room temperature; read-out: IP50 against BRG1
# T1 construct: made in house; host or cells: High Five insect cells
# T1 sequence (P51532 whole entry): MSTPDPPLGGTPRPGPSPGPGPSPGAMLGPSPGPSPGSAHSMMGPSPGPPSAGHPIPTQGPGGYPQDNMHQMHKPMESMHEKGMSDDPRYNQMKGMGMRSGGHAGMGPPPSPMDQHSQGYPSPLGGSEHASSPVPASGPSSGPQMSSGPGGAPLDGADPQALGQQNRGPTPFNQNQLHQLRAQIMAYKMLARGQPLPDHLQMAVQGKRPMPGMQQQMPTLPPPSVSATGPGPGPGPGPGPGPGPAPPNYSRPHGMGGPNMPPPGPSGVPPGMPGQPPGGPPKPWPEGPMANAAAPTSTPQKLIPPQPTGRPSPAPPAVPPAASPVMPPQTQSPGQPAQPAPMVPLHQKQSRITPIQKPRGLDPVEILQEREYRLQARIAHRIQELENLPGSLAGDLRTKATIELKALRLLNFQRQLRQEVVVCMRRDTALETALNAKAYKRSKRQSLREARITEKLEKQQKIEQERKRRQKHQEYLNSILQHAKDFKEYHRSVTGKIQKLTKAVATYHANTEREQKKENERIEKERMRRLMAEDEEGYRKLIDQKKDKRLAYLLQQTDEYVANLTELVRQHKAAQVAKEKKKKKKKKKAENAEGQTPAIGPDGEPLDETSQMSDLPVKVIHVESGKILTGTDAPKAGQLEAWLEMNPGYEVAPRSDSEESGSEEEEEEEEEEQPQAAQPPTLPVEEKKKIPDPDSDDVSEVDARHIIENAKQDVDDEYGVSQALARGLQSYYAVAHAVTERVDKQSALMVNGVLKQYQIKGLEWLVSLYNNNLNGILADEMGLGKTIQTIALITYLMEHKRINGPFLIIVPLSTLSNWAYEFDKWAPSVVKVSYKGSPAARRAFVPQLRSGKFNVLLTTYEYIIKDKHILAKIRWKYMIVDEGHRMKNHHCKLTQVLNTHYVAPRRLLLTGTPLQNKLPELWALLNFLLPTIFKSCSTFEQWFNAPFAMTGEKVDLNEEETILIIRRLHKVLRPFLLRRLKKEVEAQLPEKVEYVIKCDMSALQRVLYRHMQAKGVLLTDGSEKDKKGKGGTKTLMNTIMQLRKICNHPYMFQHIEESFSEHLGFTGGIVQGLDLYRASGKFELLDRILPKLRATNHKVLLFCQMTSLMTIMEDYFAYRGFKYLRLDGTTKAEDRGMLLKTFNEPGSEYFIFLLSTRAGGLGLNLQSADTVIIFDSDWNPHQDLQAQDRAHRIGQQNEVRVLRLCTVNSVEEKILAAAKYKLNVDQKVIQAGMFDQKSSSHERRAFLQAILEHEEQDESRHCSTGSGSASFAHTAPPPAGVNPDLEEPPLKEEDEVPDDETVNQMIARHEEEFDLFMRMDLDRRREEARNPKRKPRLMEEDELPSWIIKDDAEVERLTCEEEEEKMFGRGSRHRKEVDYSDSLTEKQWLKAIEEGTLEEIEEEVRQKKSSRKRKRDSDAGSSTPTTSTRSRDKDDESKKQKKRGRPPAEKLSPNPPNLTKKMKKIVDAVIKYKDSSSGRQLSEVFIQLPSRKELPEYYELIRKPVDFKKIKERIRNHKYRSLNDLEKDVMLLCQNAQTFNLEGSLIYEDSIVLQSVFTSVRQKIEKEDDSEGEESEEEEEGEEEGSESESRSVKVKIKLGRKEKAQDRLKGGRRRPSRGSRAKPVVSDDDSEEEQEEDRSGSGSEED
# MEL202 = assay: 3-day growth inhibition (Cell-titer glow), MEL202; assay type: cell-based; settings: 72 h; MEL202, Uveal melanoma, 3 days; read-out: Absolute IC50
# 92-1 = assay: 3-day growth inhibition (Cell-titer glow), 92-1; assay type: cell-based; settings: 72 h; 92-1, Uveal melanoma, 3 days; read-out: Absolute IC50
# EOL1 = assay: 3-day growth inhibition (Cell-titer glow), EOL1; assay type: cell-based; settings: Homo sapiens, 72 h; EOL1, Acute myeloid leukemia, 3 days; read-out: Absolute IC50
# MP41 = assay: 3-day growth inhibition (Cell-titer glow), MP41; assay type: cell-based; settings: 72 h; MP41, Uveal melanoma, 3 days; read-out: Absolute IC50
# THP1 = assay: 3-day growth inhibition (Cell-titer glow), THP1; assay type: cell-based; settings: Homo sapiens, THP-1, 72 h; THP1, Acute monocytic leukemia, 3 days; read-out: Absolute IC50
# U937 = assay: 3-day growth inhibition (Cell-titer glow), U937; assay type: cell-based; settings: Homo sapiens, U-937, 72 h; U937, Histiocytic lymphoma, 3 days; read-out: Absolute IC50
# [5] = tested on: 92-1 uveal melanoma cells; assay: Uveal melanoma tumor growth inhibition in vivo, subcutaneous xenograft; design: species or system Nude mice
# [6] = tested on: uveal melanoma, prostate cancer, acute leukemia and histocytic lymphoma cell lines; assay: 3-day growth inhibition (Cell-titer glow), all cell lines of Example 17; assay type: cell-based
# MP46 = assay: 3-day growth inhibition (Cell-titer glow), MP46; assay type: cell-based; settings: 72 h; MP46, Uveal melanoma, 3 days; read-out: Absolute IC50
# [7] = Body weight and tolerability in tumor-bearing mice; assay type: in vivo; settings: all treatments, once daily oral gavage, 3 weeks
# MP38 = assay: 3-day growth inhibition (Cell-titer glow), MP38; assay type: cell-based; settings: 72 h; MP38, Uveal melanoma, 3 days; read-out: Absolute IC50
# 22RV1 = assay: 3-day growth inhibition (Cell-titer glow), 22RV1; assay type: cell-based; settings: Homo sapiens, 72 h; 22RV1, Prostate, 3 days; read-out: Absolute IC50
compound,measurement,setting,value
CSCC[C@H](NC(=O)c1ccn(S(C)(=O)=O)c1)C(=O)Nc1nc(-c2cccc(-c3ccncc3)c2)cs1 [Compound B],growth inhibition,parental MP41 cells,strong growth inhibition
same,growth inhibition,"[1]; PKCi-resistant MP41, 7-day, FIG. 10",strong growth inhibition
same,growth inhibition,[2],potent growth inhibition
same,growth inhibition compared with the clinical PKC (LXS196) and MEK (Selumetinib) inhibitors,[3],more potent effects on growth inhibition
same,onset of growth inhibition compared with the clinical PKC and MEK inhibitors,[3],faster onset of growth inhibition
same,sensitivity of cell lines to BRG1/BRM inhibition,[4],more sensitive
"CC1(N)CCN(c2cccnc2NC(=O)c2nc(-c3ncccc3C(F)(F)F)cnc2N)CC1 [LXS196, reference compound]",sensitivity of PKCi-resistant cells relative to parental MP41 cells,"[1]; 7-day, FIG. 9 and FIG. 10",could tolerate growth at higher concentrations
CSOC[C@H](NC(=O)c1ccc(N)cc1)C(=O)Nc1nc(-c2cccc(-c3ccncc3)c2)cs1 [Compound A],IC50,BRG1,0.0193 µM
same,growth inhibition compared with the clinical PKC (LXS196) and MEK (Selumetinib) inhibitors,[3],comparable growth inhibition
same,onset of growth inhibition compared with the clinical PKC and MEK inhibitors,[3],faster onset of inhibition
"COC[C@H](NC(=O)c1ccn(S(C)(=O)=O)c1)C(=O)Nc1nc(-c2cccc(N3C[C@@H](C)O[C@@H](C)C3)n2)cs1 [N—((S)-1-((4-(6-(cis-2,6-dimethylmorpholino)pyridin-2-yl)thiazol-2-yl)amino)-3-methoxy-1-oxopropan-2-yl)-1-(methylsulfonyl)-1H-pyrrole-3-carboxamide]",IC50,MEL202,0.0623 µM
same,IC50,92-1,0.0003 µM
same,IC50,EOL1,0.0755 µM
same,IC50,MP41,0.0118 µM
same,IC50,THP1,0.345 µM
same,IC50,U937,0.0148 µM
same,tumor response at the highest dose,[5]; […] once daily oral gavage,tumor regression
same,tumor growth inhibition,"[5]; once daily oral gavage, increasing doses, 3 weeks",tumor growth inhibition in a dose-dependent manner
same,IC50,"[6]; 72 h, 3 days of compound treatment, read-out: absolute IC50 values, all cell lines tested",< 0.35 µM
same,growth inhibition,"[6]; 3 days, 0 to 2 μM (uveal melanoma lines) or 0 to 1 μM (other lines), FIG. 14",potent growth inhibition
same,IC50,MP46,0.113 µM
same,tolerability,[7],well tolerated
same,IC50,MP38,0.0315 µM
same,IC50,22RV1,0.0297 µM
